The text below walks through data of patent US11938168B2, “Ophthalmic compositions and methods of use therefor” (Auckland Uniservices Limited, priority 2015, dated 2024).

Test [1] has as its system keratocytes. As to the kind of experiment: TGFβ3 and dexamethasone tested separately, collagen type II production. It is filed as cell-based. To be noted: agents tested separately.
Test [2] has as its system mink lung epithelial (Mv1Lu) cells. The following applies: exemplary activity; cited from earlier work.

Some results are limits rather than exact numbers.

As to `C[C@@H]1C[C@H]2[C@@H]3CCC4=CC(=O)C=C[C@]4(C)[C@@]3(F)[C@@H](O)C[C@]2(C)[C@@]1(O)C(=O)CO` [dexamethasone, reference compound], the “collagen type II production in keratocytes” value in test [1] was “no collagen type II production”.
With “TGFβ3: TGFβ3 polypeptide, SEQ ID NO:1; recombinant human TGFβ3 from commercial sources (Abcam, ab52313)”, the “collagen type II production in keratocytes” value in test [1] is “no collagen type II production”. Moreover, the “ED50, inhibition of Mv1Lu cell proliferation” value in test [2] is not above 0.05 µg/mL.
